For three compounds, half-life results are on record in ChEMBL document CHEMBL5584318, “Targeting Solvent-Front Mutations for Kinase Drug Discovery: From Structural Basis to Design Strategies” (J Med Chem, 2024).

Molecules are shown by their SMILES.

A short description of this data set: Half life in human. Format: ADME.
As a reminder, the half-life is how long it takes for the measured level to halve. Lower therefore signals fast loss. In the case of `C[C@@H](Nc1ccn2ncc(-c3cnn(C)c3)c2n1)c1cc(F)ccc1OCC(F)F`, the half-life amounted to 315 min.

The compound `Cn1cc(-c2cnn3ccc(N4CCC[C@@H]4c4cc(F)ccc4OCC(F)F)nc23)cn1` had a half-life of 8.3 min. As for `Cn1cc(-c2cnn3ccc(N4CCC[C@@H]4c4cc(F)ccc4F)nc23)cn1`, the figure is 3 min.
